Tested on: Mtb-infected mouse lungs
Assay: Genome-wide lung transcriptome (microarray, IPA network/GO analysis) of Mtb-infected mice
Type: in vivo
Details: TNF-a regulon network

CCOc1cc([C@@H](CS(C)(=O)=O)N2Cc3cccc(NC(=O)C4CC4)c3C2=O)ccc1OC [CC-11050, N-[2-[(1S)-1-(3-ethoxy-4-methoxyphenyl)-2-(methylsulfonyl)ethyl]-2,3-dihydro-3-oxo-1H-isoindol-4-yl]-(9Cl) cyclopropanecarboxamide]
-1.15: NFKBIZ expression
1.276: KLF7 expression
-1.086: NEDD9 expression
1.176: MAP2K3 expression
-1.132: MAP4K4 expression
1.622: HSD11B1 expression
1.461: LYVE1 expression
1.2: OGN expression
0: ENTPD5 expression | ERCC1 expression | ERG expression | ESM1 expression | FABP1 expression | FABP4 expression | FBL expression | FBXO32 expression | FCER1G expression | FCER2 expression | FGF10 expression | FGF18 expression | FGFRL1 expression | FMO1 expression | FN1 expression | FNBP1 expression | FOXO4 expression | FPR1 expression | FUT4 expression | GAB1 expression | GBP2 expression | GCLM expression | GHR expression | GNAI1 expression | GNB4 expression | GNL1 expression | GOSR2 expression | GPD1 expression | GPR126 expression | GPR176 expression | GRIA1 expression | GRN expression | GSTM2 expression | GUSB expression | Gbp2 expression | Gbp4 expression | Gbp6 (includes others) expression | Gsta4 expression | H2-Q4 expression | HAPLN1 expression | HERC1 expression | HES1 expression | HEXB expression | HIF1A expression | HIPK3 expression | HIVEP1 expression | HK2 expression | HK3 expression | HLA-B expression | HLA-C expression | HLA-DRA expression | HLA-E expression | HLA-F expression | HMGN2 expression | HPGD expression | HPGDS expression | HPRT1 expression | HSD3B2 expression | IDH2 expression | IDO1 expression | IFIH1 expression | IFIT1B expression | IFNAR2 expression | IGFBP5 expression | IGFBP6 expression | IL1RN expression | IL2RA expression | IL10RA expression | IL17RD expression | IL18BP expression | IL21R expression | IL21 expression | INHBA expression | IRF1 expression | IRF5 expression | IRF7 expression | IRF8 expression | IRG1 expression | ISG15 expression | ITGA4 expression | ITGAL expression | ITGAM expression | ITGB2 expression | ITGB7 expression | Ifi204 (includes others) expression | KCNJ1 expression | KDR expression | KIF20A expression | KITLG expression | KRT23 expression | KYNU expression | LAMP3 expression | LCAT expression | LCN2 expression | LEP expression | LGALS12 expression | LITAF expression | LOC653486/SCGB1C1 expression | LPL expression | LRRC8C expression | LTB expression | LXN expression | MAN1C1 expression | MAPKAP1 expression | MARCKSL1 expression | MCL1 expression | MCM3 expression | MEFV expression | MEOX1 expression | MEOX2 expression | MMP8 expression | MMP13 expression | MMP16 expression | MMP28 expression | MPC1 expression | MSR1 expression | MUC4 expression | MVP expression | MYO9B expression | NAGLU expression | NAIP expression | NAMPT expression | NCAM1 expression | NCF2 expression | NCOA2 expression | NFATC1 expression | NFKB2 expression | NFKBIA expression | NFKBIE expression | NFRKB expression | NNMT expression | NPM3 expression | NPPA expression | NR4A1 expression | NR4A3 expression | NRP1 expression | NTN1 expression | NUAK1 expression | NUAK2 expression | Nppb expression | OAS1 expression | OAS2 expression | OAS3 expression | OASL expression | OCLN expression | OLFML2B expression | OLR1 expression | P2RY6 expression | PAFAH2 expression | PC expression | PCBP2 expression | PCDH7 expression | PCK1 expression
1.249: GSTT1 expression
1.1811: NME3 expression
1.476: KLF10 expression
1.533: LOX expression
1.207: MMP7 expression
1.521: ID1 expression
1.266: FGF2 expression

Reference: publication PMC4911353, “Pharmacologic Inhibition of Host Phosphodiesterase-4 Improves Isoniazid-Mediated Clearance of Mycobacterium tuberculosis” (Frontiers in Immunology, 2016)
